Test results: publication PMC11879040, “Advancing systemic toxicity risk assessment: Evaluation of a NAM-based toolbox approach” (Toxicological Sciences, 2024)
Like-named read-outs stand apart in the source and are kept apart here.

Columns and labels:
[1] = target: Glucocorticoid receptor, NR3C1 (h) (Homo sapiens, UniProt P04150); assay: IPP NR3C1 binding (agonist radioligand); details: IPP screening at 10 uM; control dexamethasone
dog = details: ref ToxRefDB/Paul-Friedman et al. (2020)/regulatory opinions, cited from earlier work
CYP2C19 = details: PBK level L3, Intrinsic Liver Clearance, ref [12], cited from earlier work
[2] = target: T1, Progesterone receptor, PGR (h) (Homo sapiens, UniProt P06401); assay: biochemical; type: biochemical; details: agonist, progesterone for control
T1 sequence (P06401 1-933): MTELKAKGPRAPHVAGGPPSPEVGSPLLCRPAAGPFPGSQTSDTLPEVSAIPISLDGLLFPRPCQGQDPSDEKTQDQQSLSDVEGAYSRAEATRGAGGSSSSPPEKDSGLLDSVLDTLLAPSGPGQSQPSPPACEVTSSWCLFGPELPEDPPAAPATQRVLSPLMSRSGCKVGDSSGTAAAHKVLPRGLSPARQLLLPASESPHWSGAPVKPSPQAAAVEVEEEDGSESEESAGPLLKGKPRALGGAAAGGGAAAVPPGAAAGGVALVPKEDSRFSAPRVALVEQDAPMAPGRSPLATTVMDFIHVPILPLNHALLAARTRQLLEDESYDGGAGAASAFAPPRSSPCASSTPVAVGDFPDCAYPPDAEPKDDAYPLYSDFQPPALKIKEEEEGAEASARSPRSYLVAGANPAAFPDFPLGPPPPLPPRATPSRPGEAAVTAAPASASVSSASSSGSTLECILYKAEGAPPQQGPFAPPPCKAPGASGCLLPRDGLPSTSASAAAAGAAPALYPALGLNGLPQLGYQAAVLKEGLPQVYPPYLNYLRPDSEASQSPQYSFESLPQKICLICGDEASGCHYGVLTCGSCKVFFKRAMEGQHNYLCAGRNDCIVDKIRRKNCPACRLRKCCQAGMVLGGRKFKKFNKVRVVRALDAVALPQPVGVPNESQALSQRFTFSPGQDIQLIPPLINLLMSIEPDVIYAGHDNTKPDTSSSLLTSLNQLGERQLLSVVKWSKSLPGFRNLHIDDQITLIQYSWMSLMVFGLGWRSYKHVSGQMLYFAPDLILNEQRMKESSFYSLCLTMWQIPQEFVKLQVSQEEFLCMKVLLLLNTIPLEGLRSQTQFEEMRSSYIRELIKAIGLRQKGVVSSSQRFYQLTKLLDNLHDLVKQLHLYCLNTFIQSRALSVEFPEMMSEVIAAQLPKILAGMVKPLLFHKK

[3] = target: T1, Progesterone receptor, PGR (h); assay: IPP PGR coactivator recruitment (antagonist); type: biochemical; details: ligand progesterone
[4] = intestinal absorption (PBK input); type: in vitro ADME; details: levels L2/L3, converted from [38]
[5] = cited from earlier work
[6] = target: T2, Peroxisome proliferator-activated receptor alpha, PPARA (h) (Homo sapiens, UniProt Q07869); assay: IPP PPARA coactivator recruitment (antagonist); type: biochemical; details: 10 uM; antagonist; ligand GW 7647
T2 sequence (Q07869 1-468): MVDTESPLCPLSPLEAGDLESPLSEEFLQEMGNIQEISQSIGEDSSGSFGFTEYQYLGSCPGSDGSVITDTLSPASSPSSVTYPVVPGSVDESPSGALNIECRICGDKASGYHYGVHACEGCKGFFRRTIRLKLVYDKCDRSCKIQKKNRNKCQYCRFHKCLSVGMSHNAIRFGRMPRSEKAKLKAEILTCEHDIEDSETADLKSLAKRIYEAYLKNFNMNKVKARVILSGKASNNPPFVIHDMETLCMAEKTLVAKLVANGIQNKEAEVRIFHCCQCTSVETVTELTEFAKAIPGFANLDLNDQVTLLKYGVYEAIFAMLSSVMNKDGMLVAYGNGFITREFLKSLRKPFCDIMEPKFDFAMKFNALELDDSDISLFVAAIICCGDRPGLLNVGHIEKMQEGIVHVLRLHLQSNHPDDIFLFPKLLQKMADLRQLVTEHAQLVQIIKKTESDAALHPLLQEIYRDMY

[7] = target: T3, Peroxisome proliferator-activated receptor gamma, PPARG (h) (Homo sapiens, UniProt P37231); assay: IPP PPARG coactivator recruitment (agonist); type: biochemical; details: 10 uM, rosiglitazone for control
T3 sequence (P37231 1-505): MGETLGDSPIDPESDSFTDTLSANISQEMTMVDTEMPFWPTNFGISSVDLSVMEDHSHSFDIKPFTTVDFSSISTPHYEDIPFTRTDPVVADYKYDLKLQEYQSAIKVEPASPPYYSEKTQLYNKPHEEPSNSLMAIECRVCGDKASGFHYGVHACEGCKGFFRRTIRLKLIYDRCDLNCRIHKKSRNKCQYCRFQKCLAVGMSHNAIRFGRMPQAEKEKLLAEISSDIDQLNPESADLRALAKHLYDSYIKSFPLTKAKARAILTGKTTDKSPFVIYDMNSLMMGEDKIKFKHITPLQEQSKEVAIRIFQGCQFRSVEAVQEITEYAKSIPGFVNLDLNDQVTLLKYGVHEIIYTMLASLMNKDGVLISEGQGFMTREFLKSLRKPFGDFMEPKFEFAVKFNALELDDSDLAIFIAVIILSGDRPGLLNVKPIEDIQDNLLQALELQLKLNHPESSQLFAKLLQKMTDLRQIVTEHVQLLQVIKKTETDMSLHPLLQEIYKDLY

[8] = target: T3, Peroxisome proliferator-activated receptor gamma, PPARG (h); assay: IPP PPARG coactivator recruitment (antagonist); type: biochemical; details: 10 uM, ligand rosiglitazone
[9] = target: T4, Thyroid hormone receptor beta, THRB (h) (Homo sapiens, UniProt P10828); assay: IPP THRB coactivator recruitment (agonist); type: biochemical; details: 10 uM, T3
T4 construct: purchased Eurofins Cerep (SafetyScreen44-based IPP panel)

[10] = human, Oral 100 mg, Tablet, 27 healty male, Fasted, validation, ref Shank, R.P. et al. (2005) Epilepsy Research 63:103-112
[11] = human, Oral 200 mg, Tablet, 25 healty male, Fasted, calibration, ref Shank, R.P. et al. (2005) Epilepsy Research 63:103-112
[12] = human, Oral 400 mg, Tablet, 26 healty male, Fasted, validation, ref Shank, R.P. et al. (2005) Epilepsy Research 63:103-112
[13] = Oral 500 mg tablet, Preparation A: non-shellaced core, sugar coated, fasted, 5 healthy male, calibration, ref Hart 1975
[14] = Oral 500 mg tablet, Preparation B: shellaced core, sugar coated, fasted, 5 healthy male, calibration, ref Hart 1975
[15] = Oral 500 mg tablet, Preparation C: film-coated, fasted, 5 healthy male, calibration, ref Hart 1975
[16] = human, Oral 500 mg repeat every 12 h, 2 x 250 mg tablets (Terramycin), 4 healthy male, Fasted, measured data for day 1 and day 7, validation, ref GREEN, BROWN & CALVERT, European Journal of Clinical Pharmacology (1979) 10:245-250, cited in EPA (1987)
[17] = human, Oral 500 mg, Preparation D: tablet, film-coated (Oxytetracycline hydrochloride), 5 healthy male, Fasted, calibration, ref HART, Br. J. clin. Pharmac. (1975), 2, 277-280
[18] = human, Oral 500 mg, Preparation E: Capsule (Oxytetracycline hydrochloride), 5 healthy male, Fasted, calibration, ref HART, Br. J. clin. Pharmac. (1975), 2, 277-280

T4 sequence (P10828 whole entry): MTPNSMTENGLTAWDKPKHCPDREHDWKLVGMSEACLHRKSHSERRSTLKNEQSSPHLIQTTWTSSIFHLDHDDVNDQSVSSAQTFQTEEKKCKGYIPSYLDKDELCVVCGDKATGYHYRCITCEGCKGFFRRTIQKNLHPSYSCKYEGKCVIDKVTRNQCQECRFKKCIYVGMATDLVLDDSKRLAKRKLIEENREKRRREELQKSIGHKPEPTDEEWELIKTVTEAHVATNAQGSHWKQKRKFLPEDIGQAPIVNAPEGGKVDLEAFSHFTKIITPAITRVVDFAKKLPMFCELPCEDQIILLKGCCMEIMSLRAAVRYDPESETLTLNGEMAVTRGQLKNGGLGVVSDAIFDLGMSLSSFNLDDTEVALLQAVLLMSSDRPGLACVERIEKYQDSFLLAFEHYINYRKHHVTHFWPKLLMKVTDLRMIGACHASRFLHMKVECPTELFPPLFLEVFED
Chain of Glucocorticoid receptor, NR3C1 (h) (P04150 whole entry): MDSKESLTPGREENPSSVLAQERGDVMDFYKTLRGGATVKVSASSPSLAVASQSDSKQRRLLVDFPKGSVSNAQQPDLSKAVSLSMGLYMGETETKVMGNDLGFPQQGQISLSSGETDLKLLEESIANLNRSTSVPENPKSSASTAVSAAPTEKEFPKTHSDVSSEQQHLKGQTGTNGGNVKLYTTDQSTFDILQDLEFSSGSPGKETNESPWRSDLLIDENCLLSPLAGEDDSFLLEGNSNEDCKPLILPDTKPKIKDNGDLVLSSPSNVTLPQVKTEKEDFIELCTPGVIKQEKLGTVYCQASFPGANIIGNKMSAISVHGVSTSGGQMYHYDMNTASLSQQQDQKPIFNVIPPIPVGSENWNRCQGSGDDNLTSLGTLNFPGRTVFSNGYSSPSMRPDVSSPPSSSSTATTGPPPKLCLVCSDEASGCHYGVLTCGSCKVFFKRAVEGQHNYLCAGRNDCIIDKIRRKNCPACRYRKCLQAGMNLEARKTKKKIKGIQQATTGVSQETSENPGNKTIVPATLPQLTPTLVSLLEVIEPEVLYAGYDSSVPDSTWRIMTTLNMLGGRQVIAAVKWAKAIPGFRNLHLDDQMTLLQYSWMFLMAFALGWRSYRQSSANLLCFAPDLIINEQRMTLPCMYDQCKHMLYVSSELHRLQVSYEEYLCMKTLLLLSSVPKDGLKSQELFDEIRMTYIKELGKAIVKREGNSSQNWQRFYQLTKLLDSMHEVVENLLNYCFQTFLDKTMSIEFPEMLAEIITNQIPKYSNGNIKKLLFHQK

Compound: CCOP(=S)(OCC)Oc1nc(Cl)c(Cl)cc1Cl [Chlorpyrifos, O,O-Diethyl O-(3,5,6-trichloropyridin-2-yl) phosphorothioate]
- Specific binding [1]: 29.4%
- PoD (NOAEL) (dog; 2 years, inhibition of plasma and erythrocyte ChE): 0.01 mg/kg bw/day
- Vmax CYP2C19 (TCP) (CYP2C19): 2296 uL/min/mol CYP
- Km (CYP2C19; read-out: km CYP2C19 (TCP)): 1090 nM

Compound: CC1(C)O[C@@H]2[C@@H](CO[C@@]3(COS(N)(=O)=O)OC(C)(C)O[C@@H]23)O1 [Topiramate, [(3aS,5aR,8aR,8bS)-2,2,7,7-Tetramethyltetrahydro-2H,3aH,7H-bis[1,3]dioxolo[4,5-b:4',5'-d]pyran-3a-yl]methyl sulfamate (non-preferred name)]
- IPP screening %, Coactivator recruitment ([2]; 100 uM): 0.5%
- IPP screening %, Coactivator recruitment ([3]; 100 uM): 2.2%
- Peff [4]: 3.75 cm/s x E-04
- Reported AUC0-t [5, 10]: 50.54 µg·h/mL
- Reported cmax [5, 10]: 1.3281 µg/mL
- Reported tmax [5, 10]: 4 h
- Reported AUC0-t [5, 11]: 145 µg·h/mL
- Reported cmax [5, 11]: 3.1578 µg/mL
- Reported tmax [5, 11]: 3 h
- Reported AUC0-t [5, 12]: 229 µg·h/mL
- Reported cmax [5, 12]: 6.5205 µg/mL
- Reported tmax [5, 12]: 2 h
- plasma half-life ([5]; ref not given): over 20 h

Compound: (4S,4aR,5S,5aR,6S,12aS)-4-(Dimethylamino)-3,5,6,10,12,12a-hexahydroxy-6-methyl-1,11-dioxo-1,4,4a,5,5a,6,11,12a-octahydrotetracene-2-carboxamide--hydrogen chloride (1/1) [Oxytetracycline hydrochloride]
- IPP screening %, Coactivator recruitment [6]: 42.3%
- IPP screening %, Coactivator recruitment [7]: -0.1%
- IPP screening %, Coactivator recruitment [8]: 31.2%
- IPP screening %, Coactivator recruitment [9]: -3.0%
- PoD (NOAEL) (dog; 12 months (dog), 24 months (rat)): 50 mg/kg bw/day
- Reported AUC0-t [5, 13]: 5.731 µg·h/mL
- Reported cmax [5, 13]: 1.2 µg/mL
- Reported tmax [5, 13]: 2 h
- Reported AUC0-t [5, 14]: 4.455 µg·h/mL
- Reported cmax [5, 14]: 0.88 µg/mL
- Reported tmax [5, 14]: 3 h
- Reported AUC0-t [5, 15]: 7.198 µg·h/mL
- Reported cmax [5, 15]: 1.43 µg/mL
- Reported tmax [5, 15]: 3 h
- Reported AUC0-t [5, 16]: 79.42 µg·h/mL
- Reported cmax [5, 16]: 2.25 µg/mL
- Reported tmax [5, 16]: 74 h
- Reported AUC0-t [5, 17]: 8.279 µg·h/mL
- Reported cmax [5, 17]: 1.51 µg/mL
- Reported tmax [5, 17]: 2 h
- Reported AUC0-t [5, 18]: 7.8 µg·h/mL
- Reported cmax [5, 18]: 1.45 µg/mL
- Reported tmax [5, 18]: 3 h

Compound: mixture of 2- and 3-tert-butyl-4-methoxyphenol [Butylated Hydroxyanisole]
- Specific binding [1]: -0.5%
- IPP screening %, Coactivator recruitment [6]: 4.4%
- IPP screening %, Coactivator recruitment [7]: -0.1%
- IPP screening %, Coactivator recruitment [8]: 1.4%
- IPP screening %, Coactivator recruitment ([2]; 10 uM): 0.1%
- IPP screening %, Coactivator recruitment ([3]; 10 uM): 4.0%
- IPP screening %, Coactivator recruitment [9]: 1.0%
